Assay results as given in patent US20030022151A1, “Functional screening” (priority 2001, published 2003).

How the values were obtained:
PS2 = PS2 (Homo sapiens, UniProt P49810); conditions: previously reported (Shearman et al., 2000); cited from earlier work
PS1-Sh ble polypeptide = biological target: T1, PS1-Sh ble polypeptide (UniProt P17493+P49768); assay: Level of PS1-Sh ble polypeptide after inhibitor treatment; assay type: cell-based; conditions: FIG. 13 legend
T1 construct: Sh ble protein (Ble, bleomycin/zeocin resistance protein of Streptoalloteichus hindustanus, 124 aa); expressed in transfected cells

PS1 = PS1 (Homo sapiens, UniProt P49768); conditions: previously reported (Shearman et al., 2000); cited from earlier work
[1] = tested on: Stable N2a cells expressing PS1 chimeric proteins; assay: Zeocin toxicity / cell viability assay (WST-1) in stable N2a cells expressing PS1 chimera; assay type: cell-based, mouse
Protocol: (§1) Cultured stable N2a cells expressing chimeric PS1 polypeptides were tested for cell viability in the presence of increasing concentrations of zeocin and in the presence and absence of known presenilin inhibitors in multi-well formats (FIG. 11). […] In these assays, cell viability can be assayed by commercially available cell viability ELISA kits.
(§2) Stable N2a cells expressing PS1 chimeric proteins or the parental N2a cell line were plated at a density of 6.25×10^3 cells/well into 96-well tissue culture dishes in a volume of 90 µl/well. Serial dilutions of Zeocin were added (2 mg/ml to 0.0625 mg/ml final concentration) in a volume of 10 µl/well. In some experiments the γ-secretase inhibitor, […] (purchased from Bachem) was added at a final concentration of 1 μM to one set of wells. The cells were incubated from 2 to 3 days at 37° C. Then 10 μl of Cell Proliferation Reagent WST-1 (Roche Biochemical) was added to each well. The plate was shaken for 30 sec. then placed back in the 37° C. incubator. The plate was read at 450 nm after 30 min., 1 h, 2 h and 3h in a Benchmark Plus Absorbance Plate Reader (BioRad).

parental N2a cell line = conditions: parental cells; lowest zeocin concentration tested (0.2 mg/ml); FIG. 12
Protocol: as §1, §2

parental PS1ΔBle cells = parental PS1ΔBle cells expressing very low levels of PS1ΔBle
Protocol: For the screen, a cell line that expresses very low levels of the PS1ΔBle protein is chosen so that the chimera is largely present as cleaved PS1 NTF and PS1ΔBleCTF. Thus, transgene-derived expression of a putative protein that facilitates increased accumulation of PS1ΔBle confers increased bleomycin (Zeocin) resistance to the target cell. […] After allowing infection/transgene expression for 2-3 days, the infected population of cells are subject to antibiotic selection in 1-2 mg/ml zeocin (5-10 times greater than the concentration normally used for selecting stable clones). At this higher concentration, only cells that accumulate several fold higher levels of PS1ΔBle relative to parental PS1ΔBle cells (that are resistant to 0.2 mg/ml), form colonies. […] If overexpression of a particular cDNA caused increased accumulation of PS1ΔBle, and therefore, an increased resistance to zeocin, in a clone, the cDNA rescued from the clone will confer increased resistance to the parental PS1ΔBle cells during the rescreening.

SMILES | binding to PS2 (PS2) | levels of the PS1-Sh ble polypeptide (PS1-Sh ble polypeptide) | binding to PS1 (PS1) | zeocin concentrations at which inhibitor-treated cells are viable ([1]; cells expressing PS1 chimera treated with inhibitor (1 μM), FIG. 13) [mg/mL] | resistance to zeocin conferred by the PS1 chimera ([1]; inhibitor at final concentration of 1 μM plus zeocin, FIG. 13) | cell viability in presence of zeocin (parental N2a cell line) | zeocin concentration to which cells are resistant (parental PS1ΔBle cells) [mg/mL] | zeocin concentrations at which cells are viable ([1]; cells expressing PS1 chimera, 2 to 3 days at 37° C., WST-1 read at 450 nm, FIG. 12) [mg/mL]
CC(C)C[C@H](NC(=O)[C@H](Cc1ccccc1)C[C@@H](O)[C@H](Cc1ccccc1)NC(=O)OC(C)(C)C)C(=O)N[C@@H](Cc1ccccc1)C(N)=O [L-685,458] | bind | reduces the levels | bind | 0 to 2 | reduced the resistance to zeocin | – | – | –
Cc1c(N)nc([C@H](CC(N)=O)NC[C@H](N)C(N)=O)nc1C(=O)N[C@H](C(=O)N[C@H](C)[C@@H](O)[C@H](C)C(=O)N[C@H](C(=O)NCCC1=N[C@@H](c2nc(C(=O)NCCCCN=C(N)N)cs2)CS1)[C@@H](C)O)[C@@H](O[C@@H]1O[C@@H](CO)[C@@H](O)[C@H](O)[C@@H]1O[C@H]1O[C@H](CO)[C@@H](O)[C@H](OC(N)=O)[C@@H]1O)c1cnc[nH]1 [zeocin] | – | – | – | – | – | significantly less viable | 0.2 | 0 to 4
